Target: T1, Bruton's tyrosine kinase (BTK) (Homo sapiens, UniProt Q06187)
T1 construct: purified BTK (76 kDa)
Experiment: IC50 on purified BTK enzyme; also covalent labelling of purified BTK and of BTK in Toledo cells by denaturing gel fluorescence, blocked by Ibrutinib
Assay type: biochemical

T1 sequence (Q06187 2-659): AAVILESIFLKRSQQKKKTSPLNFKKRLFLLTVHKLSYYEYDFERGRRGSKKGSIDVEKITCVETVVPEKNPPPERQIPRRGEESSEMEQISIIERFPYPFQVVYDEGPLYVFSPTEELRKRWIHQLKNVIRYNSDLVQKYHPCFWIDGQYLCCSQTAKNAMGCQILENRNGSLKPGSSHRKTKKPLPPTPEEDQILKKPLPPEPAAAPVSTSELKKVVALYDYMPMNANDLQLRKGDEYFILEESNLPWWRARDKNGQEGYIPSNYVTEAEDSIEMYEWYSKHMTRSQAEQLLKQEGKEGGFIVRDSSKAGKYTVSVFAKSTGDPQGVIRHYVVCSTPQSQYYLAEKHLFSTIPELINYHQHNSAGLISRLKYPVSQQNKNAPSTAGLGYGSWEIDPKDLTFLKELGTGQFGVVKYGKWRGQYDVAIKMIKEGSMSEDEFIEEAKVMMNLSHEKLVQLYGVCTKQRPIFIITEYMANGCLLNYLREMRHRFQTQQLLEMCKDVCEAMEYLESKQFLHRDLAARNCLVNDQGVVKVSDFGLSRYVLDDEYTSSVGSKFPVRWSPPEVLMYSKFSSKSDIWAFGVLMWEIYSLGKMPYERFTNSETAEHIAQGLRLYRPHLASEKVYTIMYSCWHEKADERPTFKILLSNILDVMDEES

IC50: ~200 nM
Structure (SMILES): Cc1cc(C)n2c1C=C1C=CC(CCC(=O)NC/C=C/C(=O)N3CCC[C@@H](n4nc(-c5ccc(Oc6ccccc6)cc5)c5c(N)ncnc54)C3)=[N+]1[B-]2(F)F [compound 7, (R,E)-3-(3-((4-(3-(4-amino-3-(4-phenoxyphenyl)-1H-pyrazolo[3,4-d]pyrimidin-1-yl)piperidin-1-yl)-4-oxobut-2-en-1-yl)amino)-3-oxopropyl)-5,5-difluoro-7,9-dimethyl-5H-dipyrrolo[1,2-c:2′,1′-f][1,3,2]diazaborinin-4-ium-5-uide]
